Molecular target: T1, IRAK4 (Homo sapiens, UniProt Q9NWZ3)
T1 sequence (Q9NWZ3 1-460): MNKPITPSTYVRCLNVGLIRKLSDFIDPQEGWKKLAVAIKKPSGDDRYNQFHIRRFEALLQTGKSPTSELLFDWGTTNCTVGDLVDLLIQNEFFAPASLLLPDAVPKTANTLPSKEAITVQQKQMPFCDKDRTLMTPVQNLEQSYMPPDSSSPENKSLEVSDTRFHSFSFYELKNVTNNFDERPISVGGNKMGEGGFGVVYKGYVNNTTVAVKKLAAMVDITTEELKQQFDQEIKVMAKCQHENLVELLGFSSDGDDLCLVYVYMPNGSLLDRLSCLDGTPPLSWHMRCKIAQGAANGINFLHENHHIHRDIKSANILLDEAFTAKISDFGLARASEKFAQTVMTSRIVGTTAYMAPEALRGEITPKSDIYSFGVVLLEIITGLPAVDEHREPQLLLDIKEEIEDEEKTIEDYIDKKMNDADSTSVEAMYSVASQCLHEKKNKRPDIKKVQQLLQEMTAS
Experiment: OCI-LY-10 degradation assay (western blot, % IRAK4 degraded after 4 hours)
Assay type: cell-based
Set-up: endogenous in cells; host or cells: OCI-LY10
Settings: OCI-LY10 cells, IRAK4 degraded after 4 hours, western blot
Procedure: Compounds were reconstituted in DMSO to make stock solutions at concentration of 60 mM. THP-1 and OCI-LY10 cells were maintained in RPMI-1640 medium containing 10% FBS, 0.5 μM 2-ME or 20% FBS, 55 μM 2-ME, and 1% L-Glutamine respectively.
Cells were seeded into 6-well plates with 5e6 cells per well. 200 μL of diluted compounds were added to cells to the final concentration of 0.003-10 μM. After 4 or 24 hour-incubation at 37° C., cells were collected into 2 mL Eppendorf tubes and centrifuged at 1,000 rpm for 5 min. The cell pellets were washed with 1×DPBS once and resuspended in 60 μL lysis buffer. The cells were lysed on ice for 10 min, then centrifuged at 14,000 rpm for 10 min at 4° C. and the supernatants were collected for western blots. For THP-1 cells, the lysis buffer contained 40 mM pH 7.4 HEPES, 140 mM NaCl, 2.5 mM EDTA, 1% NP-40, 0.1% SDS, and protease inhibitor cocktail (Roche, Cat. No. 05892791001). For OCI-LY10 cells, RIPAbuffer (Thermo Fisher, 89900) with Halt Protease and Phosphatase Inhibitor Cocktail (Thermo Fisher, 78446) was applied.
The protein concentration of cell lysates was quantified with Pierce™ BCA Protein Assay Kit (Pierce, 23227). Albumin standards at different concentrations were prepared, involving 2,000 ug/mL, 1,500 ug/mL, 1,000 ug/mL, 750 ug/mL, 500 ug/mL, 250 ug/mL, 125 ug/mL, and 25 ug/mL. BCA working reagents were prepared by mixing BCA reagent A with reagent B in 50:1 ratio. 200 μL of the BCA working reagents were added to 25 μL of BCA standard or cell lysates in microplate, and mixed thoroughly on a plate shaker for 30 seconds. After incubation at 37° C. for 30 min, the absorbance of samples at 562 nm were measured with EnVision Plate Reader.
Protein lysates were prepared in NuPAGE™ LDS sample buffer and NuPAGE™ sample reducing agent, and incubated at 95° C. for 5 min. For western blots, 20-25 μg of total proteins were resolved in 4-12% Bis-Tris gels (Introgen, WG1403A) or 10% Bis-Tris Midi gels (Invitrogen, WG1202BOX) running with 1×MOPS SDS running buffer (Invitrogen, NP0001) or 1×MES SDS running buffer (Invitrogen, NP0002). The proteins were transferred to low fluorescence PVDF membranes using the Trans-Blot Turbo Transfer System. Membranes were then blocked in Odyssey blocking buffer at RT for 1 h followed by primary incubation at 4° C. overnight. The primary antibodies were IRAK1 rabbit monoclonal antibody (CST, #4504S, 1:500), IRAK3 rabbit polyclonal antibody (CST, #4369, 1:500), IRAK4 rabbit polyclonal antibody (CST, #4363S, 1:1,000), MyD88 rabbit monoclonal antibody (Abcam, Ab133739, 1:2,000), j3-actin mouse monoclonal antibody (Sigma, A5441, 10,000), and Gapdh mouse monoclonal antibody (Millipore, MAB374, 1:5,000). Membranes were washed three times with 1×TBST, and then incubated with IR Dye 800 CW Goat anti-rabbit (Licor, #926-32211) and IR Dye 700 CW Goat anti-mouse (Licor, #926-68070) secondary antibodies in 1:10,000 dilution at RT for 1 h. The western blot images were obtained using Odyssey Imaging System.
OCI-LY-10 results at 4 hours. The letter codes indicate the percentage of IRAK4 degraded after 4 hours: A (>50% degradation), B (>20-50% degradation) and C (<20% degradation)
OCI-LY-10 results at 4 hours. The letter codes for % IRAK4 degradation indicate the percentage of IRAK4 degraded after 4 hours across three different concentrations: A (>50% degradation), B (>20-50% degradation) and C (<20% degradation).

Structure (SMILES)	OCI-LY10 % IRAK4 Degradation
CC(OCCOCCNc1cccc2c1C(=O)N(C1CCC(=O)NC1=O)C2=O)C(F)CNC(=O)c1cnc(Nc2ccc3cnccc3n2)cc1NC1CC1 (stereo not shown) [I-84]	C (<20% degradation)
CC(OCCOCCNc1cccc2c1C(=O)N(C1CCC(=O)NC1=O)C2=O)C(F)CNC(=O)c1cnc(-n2ncc3cc(C#N)cnc32)cc1NC1CC1 (stereo not shown) [I-85]	C (<20% degradation)
CC(C)(OCCCOCCCNc1cccc2c1C(=O)N(C1CCC(=O)NC1=O)C2=O)C(F)CNC(=O)c1cnc(-n2ncc3cc(C#N)cnc32)cc1NC1CC1 (stereo not shown) [I-86]	C (<20% degradation)
CC[C@@H]1[C@H](F)C(=O)N[C@@H]1COc1nccc2cc(C(=O)NCCOCCOCCNc3cccc4c3C(=O)N(C3CCC(=O)NC3=O)C4=O)c(OC)cc12 (stereo partly shown) [I-87]	C (<20% degradation)
CC[C@@H]1[C@H](F)C(=O)N(CCOCCOCCOCCOCCNc2cccc3c2C(=O)N(C2CCC(=O)NC2=O)C3=O)[C@@H]1COc1nccc2cc(C(N)=O)c(OC)cc12 (stereo partly drawn) [I-89, 1-[[(2S,3S,4S)-1-[2-[2-[2-[2-[2-[[2-(2,6-dioxo-3-piperidyl)-1,3-dioxo-isoindolin-4-yl]amino]ethoxy]ethoxy]ethoxy]ethoxy]ethyl]-3-ethyl-4-fluoro-5-oxo-pyrrolidin-2-yl]methoxy]-7-methoxy-isoquinoline-6-carboxamide]	C (<20% degradation)
CC(CNc1cccc2c1C(=O)N(C1CCC(=O)NC1=O)C2=O)OCCOCCOCC(F)CNC(=O)c1cnc(Nc2ccc3cnccc3n2)cc1NC1CC1 (stereo not shown) [I-93, 4-(Cyclopropylamino)-N-[3-[2-[2-[2-[[2-(2,6-dioxo-3-piperidyl)-1,3-dioxo-isoindolin-4-yl]amino]-1-methyl-ethoxy]ethoxy]ethoxy]-2-fluoro-propyl]-6-(1,6-naphthyridin-2-ylamino)pyridine-3-carboxamide]	C (<20% degradation)
CC[C@@H]1[C@H](F)C(=O)N[C@@H]1COc1nccc2cc(C(=O)NCCOCCOCCOCCOCCNC(=O)COc3cccc4c3C(=O)N(C3CCC(=O)NC3=O)C4=O)c(OC)cc12 (stereo partly shown) [I-103]	C (<20% degradation)
NC(=O)c1nn(-c2ccc(COCCOCCOCCOCCNC(=O)COc3cccc4c3C(=O)N(C3CCC(=O)NC3=O)C4=O)cc2)cc1NC(=O)c1coc(-c2ccnc(NCC(F)(F)F)c2)n1 (stereo not shown) [I-105, N-[3-carbamoyl-1-[4-[2-[2-[2-[2-[[2-[2-(2,6-dioxo-3-piperidyl)-1,3-dioxo-isoindolin-4-yl]oxyacetyl]amino]ethoxy]ethoxy]ethoxy]ethoxymethyl]phenyl]pyrazol-4-yl]-2-[2-(2,2,2-trifluoroethylamino)-4-pyridyl]oxazole-4-carboxamide]	A (>50% degradation)
Cc1ccc(NS(=O)(=O)c2ccc(CNC(=O)COCCOCCOCCOCCNC(=O)c3ccc(-n4cc(NC(=O)c5coc(-c6ccnc(NCC(F)(F)F)c6)n5)c(C(N)=O)n4)cc3)cc2)c2[nH]cc(C#N)c12 [I-113]	C (<20% degradation)
Cc1ncsc1-c1ccc(CNC(=O)[C@@H]2C[C@@H](O)CN2C(=O)[C@@H](NC(=O)COCCOCCOCCNC(=O)c2ccc(-n3cc(NC(=O)c4coc(-c5ccnc(NCC(F)(F)F)c5)n4)c(C(N)=O)n3)cc2)C(C)(C)C)cc1 [I-115]	B (>20-50% degradation)

Other lines, results leading:

OCI-LY10 % IRAK4 Degradation	Structure (SMILES)
C (<20% degradation)	N#Cc1cnc2c(cnn2-c2cc(NC3CC3)c(C(=O)NCC(F)CCOCCOCCOCCNc3cccc4c3C(=O)N(C3CCC(=O)NC3=O)C4=O)cn2)c1 (stereo not shown) [I-88]
B (>20-50% degradation)	NC(=O)[C@@H](O)C[C@H]1CCc2sc3ncnc(O[C@H]4CC[C@H](N5CCN(CCOCCOCCNc6cccc7c6C(=O)N(C6CCC(=O)NC6=O)C7=O)CC5)CC4)c3c21 (stereo partly drawn) [I-90, (2S)-3-[(8R)-1-[4-[4-[2-[2-[2-[[2-(2,6-dioxo-3-piperidyl)-1,3-dioxo-isoindolin-4-yl]amino]ethoxy]ethoxy]ethyl]piperazin-1-yl]cyclohexoxy]-7,8-dihydro-6H-cyclopenta[4,5]thieno[1,2-c]pyrimidin-8-yl]-2-hydroxy-propanamide]
C (<20% degradation)	NC(=O)[C@H](O)C[C@H]1CCc2sc3ncnc(O[C@H]4CC[C@H](N5CCN(CCOCCOCCNc6cccc7c6C(=O)N(C6CCC(=O)NC6=O)C7=O)CC5)CC4)c3c21 (stereo partly drawn) [I-91, (2R)-3-[(8R)-1-[4-[4-[2-[2-[2-[[2-(2,6-dioxo-3-piperidyl)-1,3-dioxo-isoindolin-4-yl]amino]ethoxy]ethoxy]ethyl]piperazin-1-yl]cyclohexoxy]-7,8-dihydro-6H-cyclopenta[4,5]thieno[1,2-c]pyrimidin-8-yl]-2-hydroxy-propanamide]
A (>50% degradation)	NC(=O)c1nn(-c2ccc(COCCOCCOCCNc3cccc4c3C(=O)N(C3CCC(=O)NC3=O)C4=O)cc2)cc1NC(=O)c1coc(-c2ccnc(NCC(F)(F)F)c2)n1 (stereo not shown) [I-92, N-[3-carbamoyl-1-[4-[2-[2-[2-[[2-(2,6-dioxo-3-piperidyl)-1,3-dioxo-isoindolin-4-yl]amino]ethoxy]ethoxy]ethoxymethyl]phenyl]pyrazol-4-yl]-2-[2-(2,2,2-trifluoroethylamino)-4-pyridyl]oxazole-4-carboxamide]
B (>20-50% degradation)	N#Cc1cnc2c(cnn2-c2cc(NC3CC3)c(C(=O)NCC(F)COCCNCCOCCNc3cccc4c3C(=O)N(C3CCC(=O)NC3=O)C4=O)cn2)c1 (stereo not shown) [I-94, 6-(5-Cyano-1H-pyrazolo[3,4-b]pyridin-1-yl)-4-(cyclopropylamino)-N-(3-(2-((2-(2-((2-(2,6-dioxopiperidin-3-yl)-1,3-dioxoisoindolin-4-yl)amino)ethoxy)ethyl)amino)ethoxy)-2-fluoropropyl)nicotinamide]
C (<20% degradation)	N#Cc1cnc2c(cnn2-c2cc(NC3CC3)c(C(=O)NCC(F)COCCOCCNC(=O)COc3cccc4c3C(=O)N(C3CCC(=O)NC3=O)C4=O)cn2)c1 (stereo not shown) [I-95, 6-(5-Cyanopyrazolo[3,4-b]pyridin-1-yl)-4-(cyclopropylamino)-N-[3-[2-[2-[[2-[2-(2,6-dioxo-3-piperidyl)-1,3-dioxo-isoindolin-4-yl]oxyacetyl]amino]ethoxy]ethoxy]-2-fluoro-propyl]pyridine-3-carboxamide]
C (<20% degradation)	CC(C)(OCCOCCNC(=O)COc1cccc2c1C(=O)N(C1CCC(=O)NC1=O)C2=O)C(F)CNC(=O)c1cnc(-n2ncc3cc(C#N)cnc32)cc1NC1CC1 (stereo not shown) [I-101]
C (<20% degradation)	N#Cc1cnc2c(cnn2-c2cc(NC3CC3)c(C(=O)NCC(F)COCCCCCNC(=O)COc3cccc4c3C(=O)N(C3CCC(=O)NC3=O)C4=O)cn2)c1 (stereo not shown) [I-102]
C (<20% degradation)	Cc1ccc(NS(=O)(=O)c2ccc(CNC(=O)COCCOCCOCCOCCOCCNC(=O)c3ccc(-n4cc(NC(=O)c5coc(-c6ccnc(NCC(F)(F)F)c6)n5)c(C(N)=O)n4)cc3)cc2)c2[nH]cc(C#N)c12 [I-114]

From patent US10874743B2, “IRAK degraders and uses thereof” (Kymera Therapeutics, Inc., priority 2017, dated 2020)
